The text below walks through data of US10988477B2 (Merck Patent GmbH, priority 2018, dated 2021).

The structures appear in SMILES notation. Bounds are passed on as bounds.

Test [1] has as its system primary human pan T-cells. Kind of test: Human IL-2 assay for GCN2 inhibition (IL-2 secretion by T cells in low amino acid condition). The note with it: T-cell; IL-2 secretion from human T cells, anti-CD3/CD28 stimulation, 96 hours; read-out: IL2/T-cell EC50. The test is classed as cell-based. An excerpt: Tumor microenvironment is profoundly immuno-suppressive. This may be attributed to the depletion of amino acids (like arginine and tryptophan) which triggers the activation of GCN2 in immune cells, including T cell and myeloid cells. In T cells, activation of GCN2 leads to reduce effector functions of CD8 T cells and induction and/or maintenance of immuno-suppressive T-regs. Inhibition of that immuno-suppressive response by GCN2 inhibitors enables an anti-cancer immune response by activating effector T-cells. Herein we describe an in-vitro system we established using human T-cells stimulated in low amino acid condition in order to engage the GCN2 biology. The method described involves the modulation of IL-2 levels secreted by human T cells in responses to the GCN2 inhibitors disclosed herein.
Amino acid-free RPMI was reconstituted with all but one of the amino acids found in standard RMPI (e.g. Arginine, Tryptophan), 10% charcoal-stripped fetal bovine serum, 100 Units/mL penicillin and 0.1 mg/mL streptomycin. Primary human pan T-cells were isolated using Pan T Cell Isolation Kit, human (MACS Miltenyi biotech Cat #Order no. 130-096-535) from apheresis cones and 5×104 pan T-cells per well. The purified T cells are seeded in Nunc™ 96-Well Polystyrene Round Bottom Microwell Plates (the cells are rested in No TRP media in a 15 ml falcon tube in the incubator for 30-45 minutes while titrations for tryptophan and the GCN2 inhibitor compound are made) A plate matrix was developed to titrate both a GCN2 inhibitor and the amino acid of interest ranging from “No Amino Acid” condition, up to the concentration found in the regular RPMI media (20 μM for TRP and 950 μM for Arginine). The cells were incubated for 30 min at 37° C. with the GCN2 inhibitor and then stimulated with 5×104 anti-CD3/CD28 Dynabeads® per well. After 96 hours of incubation the IL-2 level in the supernatant were measured using ELISA (R&D systems Cat #DY202 (Human IL-2 DuoSet ELISA). Data were plotted in GraphPad Prism software and EC50 is calculated.

The target in the next test is GCN2 kinase (Homo sapiens, UniProt Q9P2K8). Kind of test: GCN2 enzyme inhibition assay (Transcreener ADP2 fluorescence polarization). The note with it: 280 μM ATP. In kind it is biochemical. An outline of the steps:
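Kinase activity is followed as ADP formation, measured by fluorescence polarization, using 4 nM enzyme with 280 μM ATP and 200 μM (RS)7 peptide at pH 7.5 and 25 °C for 1 h. Values come from a non-linear tight-binding fit.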

Test [2] has as its target intracellular GCN2 (phosphorylation of the GCN2 substrate eIF2α) (Homo sapiens, UniProt Q9P2K8). Kind of test: GCN2 cellular inhibition assay (AlphaScreen SureFire P-eIF2α Ser51, borrelidin-treated U2OS cells). The test is classed as cell-based. The note with it: biomarker assay, phosphorylated eIF2α Ser51 in borrelidin-treated U2OS cells. In outline:
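U2OS, overnight attach; cpd 4-fold serial dil. from 40 μM final; borrelidin 10 μM, 1 h 37 °C/5% CO2; lyse; AlphaScreen P-eIF2α Ser51 (acceptor 2 h, donor overnight, RT, dark); % inhib. vs borrelidin-only.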

The mark [3] stands for this setting: compounds of Formula II, 4 nM GCN2 kinase.
Where [4] appears, read: compounds of Formula IV, 4 nM GCN2 kinase.
Setting [5] is: Enzyme activity for compounds of Formula IV, Ki(app), 25° C.

Sequence of intracellular GCN2 (phosphorylation of the GCN2 substrate eIF2α) (Q9P2K8 whole entry): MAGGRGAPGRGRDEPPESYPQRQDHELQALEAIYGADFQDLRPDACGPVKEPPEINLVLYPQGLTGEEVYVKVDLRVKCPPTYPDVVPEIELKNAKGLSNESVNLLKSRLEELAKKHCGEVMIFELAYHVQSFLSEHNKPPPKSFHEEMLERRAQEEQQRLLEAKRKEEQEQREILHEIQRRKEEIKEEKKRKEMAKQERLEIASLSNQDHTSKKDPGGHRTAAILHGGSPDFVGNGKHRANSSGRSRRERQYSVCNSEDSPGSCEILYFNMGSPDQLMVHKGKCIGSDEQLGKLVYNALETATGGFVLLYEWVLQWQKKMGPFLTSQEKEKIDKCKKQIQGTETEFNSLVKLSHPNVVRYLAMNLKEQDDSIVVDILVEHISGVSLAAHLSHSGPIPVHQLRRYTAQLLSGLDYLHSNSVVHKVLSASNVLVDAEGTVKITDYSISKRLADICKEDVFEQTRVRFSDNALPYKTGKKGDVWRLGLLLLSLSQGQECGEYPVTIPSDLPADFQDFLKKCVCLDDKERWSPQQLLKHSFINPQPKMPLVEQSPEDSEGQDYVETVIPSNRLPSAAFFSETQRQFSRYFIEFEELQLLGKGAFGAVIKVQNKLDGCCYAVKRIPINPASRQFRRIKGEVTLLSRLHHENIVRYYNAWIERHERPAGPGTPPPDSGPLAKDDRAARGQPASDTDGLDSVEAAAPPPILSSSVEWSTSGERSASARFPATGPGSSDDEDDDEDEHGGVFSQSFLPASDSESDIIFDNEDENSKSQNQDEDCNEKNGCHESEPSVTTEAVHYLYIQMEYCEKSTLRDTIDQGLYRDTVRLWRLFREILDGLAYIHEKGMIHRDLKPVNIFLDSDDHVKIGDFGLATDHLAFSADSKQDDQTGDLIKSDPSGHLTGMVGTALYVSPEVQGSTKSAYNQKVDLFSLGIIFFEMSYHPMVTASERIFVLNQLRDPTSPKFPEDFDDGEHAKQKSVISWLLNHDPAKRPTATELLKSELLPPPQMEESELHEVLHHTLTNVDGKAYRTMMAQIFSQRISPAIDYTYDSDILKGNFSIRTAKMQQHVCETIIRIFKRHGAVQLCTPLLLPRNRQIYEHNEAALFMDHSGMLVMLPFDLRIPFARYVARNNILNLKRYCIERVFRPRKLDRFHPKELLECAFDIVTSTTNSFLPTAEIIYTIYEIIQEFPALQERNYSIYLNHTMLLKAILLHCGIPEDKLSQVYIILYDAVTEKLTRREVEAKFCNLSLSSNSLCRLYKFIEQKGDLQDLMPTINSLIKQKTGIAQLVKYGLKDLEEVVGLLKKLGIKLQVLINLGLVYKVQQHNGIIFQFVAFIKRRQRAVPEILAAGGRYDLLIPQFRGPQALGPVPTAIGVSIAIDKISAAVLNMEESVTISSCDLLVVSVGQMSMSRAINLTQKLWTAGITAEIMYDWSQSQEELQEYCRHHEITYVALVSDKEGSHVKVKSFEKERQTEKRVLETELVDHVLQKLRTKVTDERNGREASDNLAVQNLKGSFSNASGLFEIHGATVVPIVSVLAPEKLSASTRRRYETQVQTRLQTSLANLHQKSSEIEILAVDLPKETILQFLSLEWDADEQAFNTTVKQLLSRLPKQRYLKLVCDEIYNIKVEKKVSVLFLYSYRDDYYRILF
Sequence of GCN2 kinase (Q9P2K8 whole entry): as above

Turning to `C[C@H]1C[C@@H](NS(C)(=O)=O)CN(c2cc(-c3cnc4ccc(C(F)F)nn34)ncn2)C1` (stereo in doubt) [II-777, N-((3R,5S)-1-(6-(6-(difluoromethyl)imidazo[1,2-b]pyridazin-3-yl)pyrimidin-4-yl)-5-methylpiperidin-3-yl)methanesulfonamide], in test [1], the EC50 is 0.1 to 0.5 µM. Still for that read-out and setting: next, `CS(=O)(=O)NCC1CCCN(c2cc(-c3cnc4ccc(C(F)F)nn34)cc(OC3CNC3)n2)C1` (centres unmarked) [II-779, N-((1-(6-(azetidin-3-yloxy)-4-(6-(difluoromethyl)imidazo[1,2-b]pyridazin-3-yl)pyridin-2-yl)piperidin-3-yl)methyl)methanesulfonamide]: more than 0.5 µM.

What is called IC50 is the point on the concentration scale where inhibition reaches its midpoint. The low end stands for greater potency, the high end for weaker potency. As to `C[C@H](NS(C)(=O)=O)[C@@H]1CN(c2cc(-c3cnc4ccc(C(F)F)nn34)ncn2)CCO1` [II-772], at GCN2 kinase (setting [3]), the concentration for half-maximal inhibition (IC50) lay within 0.01 to 1 µM. Moreover, the EC50 in test [1] was in the range of 0.1 to 0.5 µM.

For the compound `C[C@H]1[C@@H](CNS(C)(=O)=O)CCCN1c1cc(-c2cnc3ccc(C(F)F)nn23)ncn1` (stereo in doubt) [II-755, N-(((2S,3R)-1-(6-(6-(difluoromethyl)imidazo[1,2-b]pyridazin-3-yl)pyrimidin-4-yl)-2-methylpiperidin-3-yl)methyl)methanesulfonamide], the 50% inhibitory concentration (IC50) against GCN2 kinase (setting [3]) is more than 1 µM. Further, the EC50 in test [1] lay in the range of 0.1 to 0.5 µM.

Take `CS(=O)(=O)NCC1CN(c2cc(-c3cnc4ccc(C(F)F)nn34)ncn2)CC2(CC2)C1(F)F` (centres unmarked) [II-775, N-((5-(6-(6-(difluoromethyl)imidazo[1,2-b]pyridazin-3-yl)pyrimidin-4-yl)-8,8-difluoro-5-azaspiro[2.5]octan-7-yl)methyl)methanesulfonamide]: the EC50 in test [1] lay in the range of 0.1 to 0.5 µM. Take `Cc1[nH]ncc1[C@H]1CN(c2cc(-c3cnc4ccc(C(F)(F)F)nn34)ncn2)C[C@@H](C)O1` [II-768, (2R,6S)-2-methyl-6-(5-methyl-1H-pyrazol-4-yl)-4-(6-(6-(trifluoromethyl)imidazo[1,2-b]pyridazin-3-yl)pyrimidin-4-yl)morpholine]: the concentration for half-maximal inhibition (IC50) at GCN2 kinase (setting [3]) is less than 0.01 µM; in test [2] (compounds of Formula II), less than 0.5 µM. In addition, the EC50 in test [1] is more than 0.5 µM.

For `CS(=O)(=O)NC[C@H]1C[C@@H](C2CC2)CN(c2cc(-c3cnc4ccc(C(F)F)nn34)ncn2)C1` [II-774, N-(((3S,5S)-5-cyclopropyl-1-(6-(6-(difluoromethyl)imidazo[12-b]pyridazin-3-yl)pyrimidin-4-yl)piperidin-3-yl)methyl)methanesulfonamide], the EC50 in test [1] is less than 0.1 µM. Turning to `CS(=O)(=O)NC[C@@H]1CN(c2cc(-c3cnc4ccc(C(F)F)nn34)ncn2)C[C@H](C(F)(F)F)O1` [II-771, N-(((2S,6R)-4-(6-(6-(difluoromethyl)imidazo[1,2-b]pyridazin-3-yl)pyrimidin-4-yl)-6-(trifluoromethyl)morpholin-2-yl)methyl)methanesulfonamide], the IC50 at GCN2 kinase (setting [3]) was in the range of 0.01 to 1 µM. In test [1], the EC50 is 0.1 to 0.5 µM.

With `C[C@H]1CC(F)(F)C(CNS(C)(=O)=O)CN1c1cc(-c2cnc3ccc(C(F)F)nn23)ncn1` (stereo in doubt) [II-778, N-(((3R,6S)-1-(6-(6-(difluoromethyl)imidazo[1,2-b]pyridazin-3-yl)pyrimidin-4-yl)-4,4-difluoro-6-methylpiperidin-3-yl)methyl)methanesulfonamide], the EC50 in test [1] was more than 0.5 µM. Consider `Cc1n[nH]cc1[C@H]1C[C@@H](O)CN(c2ccnc(-c3cnc4cnc(C(F)(F)F)cn34)n2)C1` [IV-776, (3R,5R)-5-(3-methyl-1H-pyrazol-4-yl)-1-(2-(6-(trifluoromethyl)imidazo[1,2-a]pyrazin-3-yl)pyrimidin-4-yl)piperidin-3-ol], for which the half-maximal inhibitory concentration (IC50) against GCN2 kinase (setting [4]) was less than 0.01 µM; in test [2] (compounds of Formula IV), 0.5 to 5 µM. Further, in test [1], the EC50 is more than 0.5 µM.

Turning to `C[C@H]1C[C@@H](c2c[nH]nc2F)CN(c2ccnc(-c3cnc4cnc(C(F)(F)F)cn34)n2)C1` [IV-767], the IC50 was less than 0.01 µM against GCN2 kinase (setting [4]) and less than 0.5 µM in test [2] (compounds of Formula IV). In addition, in test [1], the EC50 lay in the range of 0.1 to 0.5 µM. `C[C@H]1CN(c2cc(-c3cnc4ccc(C(F)F)nn34)ncn2)C[C@@H](CNS(C)(=O)=O)C1(F)F` [II-773, N-(((3S,5S)-1-(6-(6-(difluoromethyl)imidazo[1,2-b]pyridazin-3-yl)pyrimidin-4-yl)-4,4-difluoro-5-methylpiperidin-3-yl)methyl)methanesulfonamide]: the EC50 in test [1] is less than 0.1 µM. For the compound `Cc1n[nH]cc1[C@@H]1CN(c2ccnc(-c3cnc4cnc(C(F)(F)F)cn34)n2)C[C@H](C)O1` (stereo in doubt) [IV-763, (2S,6R)-2-methyl-6-(3-methyl-1H-pyrazol-4-yl)-4-(2-(6-(trifluoromethyl)imidazo[1,2-a]pyrazin-3-yl)pyrimidin-4-yl)morpholine], the figures for the IC50 (on GCN2 kinase (setting [4]); in test [2] (compounds of Formula IV)) were less than 0.01 µM and less than 0.5 µM, respectively. In addition, in test [1], the EC50 fell in the range of 0.1 to 0.5 µM. As to `C[C@H]1[C@@H](CNS(C)(=O)=O)N(C2CC2)CCN1c1cc(-c2cnc3ccc(C(F)F)nn23)ncn1` [II-752, N-(((2R,3S)-1-cyclopropyl-4-(6-(6-(difluoromethyl)imidazo[12-b]pyridazin-3-yl)pyrimidin-4-yl)-3-methylpiperazin-2-yl)methyl)methanesulfonamide], the IC50 was less than 0.01 µM at GCN2 kinase (setting [3]) and less than 0.5 µM in test [2] (compounds of Formula II). The EC50 in test [1] is less than 0.1 µM.

Turning to `CC1(C)CN(c2cc(-c3cnc4ccc(C(F)F)nn34)ncn2)C[C@@H](CNS(C)(=O)=O)O1` [II-776, (S)—N-((4-(6-(6-(difluoromethyl)imidazo[1,2-b]pyridazin-3-yl)pyrimidin-4-yl)-6,6-dimethylmorpholin-2-yl)methyl)methanesulfonamide], the EC50 in test [1] was 0.1 to 0.5 µM. In turn, `C[C@H]1CN(c2cc(-c3cnc4ccc(C(C)(F)F)nn34)ncn2)C[C@@H](CNS(C)(=O)=O)C1(F)F` [II-321, N-(((3S,5S)-1-(6-(6-(1,1-Difluoroethyl)imidazo[1,2-b]pyridazin-3-yl)pyrimidin-4-yl)-4,4-difluoro-5-methylpiperidin-3-yl)methyl)methanesulfonamide] yielded a Ki on GCN2 kinase (setting [3]) of 0.01 to 1 µM. In test [2] (compounds of Formula II), this compound showed a concentration for half-maximal inhibition (IC50) of more than 5 µM. Compound `CC(=O)N1CCC(c2cc(-c3cnc4ccc(C(F)F)nn34)ncn2)C1` (centres unmarked) [II-253, 1-(3-(6-(6-(Difluoromethyl)imidazo[1,2-b]pyridazin-3-yl)pyrimidin-4-yl)pyrrolidin-1-yl)ethan-1-one] showed a Ki on GCN2 kinase (setting [3]) of 0.01 to 1 µM. In addition, the IC50 in test [2] (compounds of Formula II) was more than 5 µM.

With `CC1CN(c2ccnc(-c3cnc4cnc(C(F)(F)F)cn34)n2)C(C)C(c2cn[nH]c2)O1` (single isomer, unassigned) [IV-450, 3,6-Dimethyl-2-(1H-pyrazol-4-yl)-4-(2-(6-(trifluoromethyl)imidazo[1,2-a]pyrazin-3-yl)pyrimidin-4-yl)morpholine], the Ki at GCN2 kinase (setting [5]) was 0.1 to 1 µM. Besides, in test [2] (compounds of Formula IV), the half-maximal inhibitory concentration (IC50) was 0.5 to 5 µM. `NS(=O)(=O)NCC1CCCN(c2ccnc(-c3cnc4cnc(C(F)F)cn34)n2)C1` (centres unmarked) [IV-74, 6-(Difluoromethyl)-3-[4-[3-[(sulfamoylamino)methyl]-1-piperidyl]pyrimidin-2-yl]imidazo[1,2-a]pyrazine] showed a Ki at GCN2 kinase (setting [5]) of 0.1 to 1 µM. Further, the half-inhibitory concentration (IC50) in test [2] (compounds of Formula IV) was more than 5 µM. Turning to `CC1CC(CNS(C)(=O)=O)CN1c1cc(-c2cnc3ccc(C(F)F)nn23)ncn1` (centres unmarked) [II-8, N-((1-(6-(6-(Difluoromethyl)imidazo[1,2-b]pyridazin-3-yl)pyrimidin-4-yl)-5-methylpyrrolidin-3-yl)methyl)methanesulfonamide], at GCN2 kinase (setting [3]), the Ki lay in the range of 0.01 to 1 µM. This compound displayed an IC50 in test [2] (compounds of Formula II) of 0.5 to 5 µM.
